Source: article PMC10759735, “The diverse functions of Mu-class Glutathione S-transferase HrGSTm1 during the development of Hyalomma rufipes with a focus on the detoxification metabolism of cyhalothrin” (Parasites & Vectors, 2024)

Tested on: T1, rHrGSTm1
T1 construct: gene HrGSTm1; full-length CDS (672-bp ORF); 223 aa in abstract, 233; recombinant 44 kDa, no tag removal described
Test: GSH conjugation, absorbance at […] nm, Michaelis-Menten fit
Assay type: biochemical, Hyalomma rufipes
Conditions: 5 mM GSH; CDNB varied 0.125-2 mM (printed unit μM lies far below this range, possibly meant mM); abstract calls glutathione the substrate

In the case of `O=[N+]([O-])c1ccc(Cl)c([N+](=O)[O-])c1` [CDNB, 1-Chlom-2,4-Dinitrobenzene], the Km is reported as 2.21 ± 0.76 µM.
